The values that follow come from ChEMBL document CHEMBL3593213, “Isolation of a Cyclic Depsipetide, Aspergillicin F, and Synthesis of Aspergillicins with Innate Immune-Modulating Activity” (J Nat Prod, 2015).

The test system of data set [1] is Drosophila. The experiment in a line: Innate immunity-regulating activity in Drosophila Dpt-lacZ larvae assessed as suppression of immune response by measuring DAP-type peptidoglycan-mediated Dpt-lacZ activation at 10 ug/ml incubated at 25 degC for 12 hrs by beta-galactosidase reporter gene assay. Type of data set: functional. (Reporter assays use an easily measured gene product as a stand-in for the process of interest.)

Data set [2] concerns Drosophila. In words: Innate immunity-regulating activity in Drosophila Dpt-lacZ larvae assessed as suppression of immune response by measuring DAP-type peptidoglycan-mediated Dpt-lacZ activation at 1 ug/ml incubated at 25 degC for 12 hrs by beta-galactosidase reporter gene assay. Type of data set: functional, organism-based.
Data set [3] relates to Drosophila. The experiment in a line: Innate immunity-regulating activity in Drosophila Dpt-lacZ larvae assessed as suppression of immune response by measuring DAP-type peptidoglycan-mediated Dpt-lacZ activation at 0.1 to 100 ug/ml incubated at 25 degC for 12 hrs by beta-galactosidase reporter gene assay. Type of data set: functional, organism-based.
Data set [4] relates to Drosophila. The experiment in a line: Cytotoxicity against Drosophila S2 assessed as reduction in cell viability at 0.1 to 100 ug/ml by WST8 dye based assay. For orientation: Tetrazolium dyes change colour on reduction, which living cells bring about.

Active and inactive are the calls of the source. The rule behind the calls is not given here.

By inhibition is commonly meant the drop in the measured response relative to a control, in per cent.

For `CC[C@@H](C)[C@H]1NC(=O)[C@@H](NC(C)=O)[C@@H](C)OC(=O)[C@H]([C@@H](C)CC)NC(=O)[C@H](Cc2ccc(OC)cc2)N(C)C(=O)[C@@H]2CCCN2C(=O)[C@@H]2CCCN2C1=O`, the inhibition entry in the data set with Drosophila [1] is “inactive”.
Still for that read-out and setting: the value for `CC[C@@H](C)[C@H]1NC(=O)[C@@H](NC(C)=O)[C@@H](C)OC(=O)[C@H](C(C)C)NC(=O)[C@H](Cc2ccccc2)N(C)C(=O)[C@@H]2CCCN2C(=O)[C@@H]2CCCN2C1=O` was “inactive”.
Same read-out and setting: the value for `CC[C@@H](C)[C@H]1NC(=O)[C@@H](NC(C)=O)[C@@H](C)OC(=O)[C@H](C(C)C)NC(=O)[C@H](Cc2ccccc2)NC(=O)[C@@H]2CCCN2C(=O)[C@@H]2CCCN2C1=O` was “inactive”.
Same read-out and setting: the value for `CCC[C@H]1NC(=O)[C@@H](NC(C)=O)[C@@H](C)OC(=O)[C@H](C(C)C)NC(=O)[C@H](Cc2ccc(OC)cc2)N(C)C(=O)[C@@H]2CCCN2C(=O)[C@@H]2CCCN2C1=O` was “inactive”.
Take `CC[C@@H](C)[C@H]1NC(=O)[C@@H](NC(C)=O)[C@@H](C)OC(=O)[C@H](C(C)C)NC(=O)[C@H](Cc2ccc(OC)cc2)N(C)C(=O)[C@@H]2CCCN2C(=O)[C@@H]2CCCN2C1=O`: the inhibition entry with Drosophila [1] was “inactive”.
As for `COc1cc(O)c2c(c1)/C=C/C[C@H](O)[C@H](O)[C@@H](O)/C=C/C[C@H](C)OC2=O`, the inhibition result in the data set on Drosophila [2] is “Active”.
In the case of `CC[C@@H](C)[C@@H]1NC(=O)[C@H](Cc2ccc(OC)cc2)N(C)C(=O)[C@@H]2CCCN2C(=O)[C@@H]2CCCN2C(=O)[C@@H]([C@H](C)CC)NC(=O)[C@@H](NC(C)=O)[C@@H](C)OC1=O`, the inhibition at 10 µg/mL in the data set on Drosophila [1] is 37%. In addition, the inhibition entry in the data set with Drosophila [3] is “Dose-dependent effect”. In addition, in the data set with Drosophila [4], the Activity entry was “Non-toxic”.
